In article PMC10988555, “Exploiting Co(III)-Cyclopentadienyl Complexes To Develop Anticancer Agents” (Inorganic Chemistry, 2024):

How the values were obtained:
[1] = tested on: MDA-MB-231 (human breast cancer) cell line; test: Antiproliferative activity, MTS assay, MDA-MB-231; format: cell-based; details: 48 h exposure
Description: (§1) Human colorectal carcinoma cell line (HCT116), human breast cancer cell lines (MDA-MB-231 and MCF-7), and normal human primary dermal fibroblasts neonatal (PCS-201-010) cell line were grown in DMEM (Dulbecco’s modified Eagle’s medium) (Invitrogen Corp., Grand Island, NY, USA) supplemented with 10% (v/v) fetal bovine serum and 1% (v/v) antibiotic/antimycotic solution (Invitrogen Corp.). The human ovarian carcinoma (A2780) cell line was cultivated using RPMI (Roswell Park Memorial Institute) medium supplemented as in DMEM medium. The supplemented medium is named a complete medium. Cells were grown in an incubator with a humidified atmosphere at 5% (v/v) CO2 and 37 °C. All cell lines were purchased from ATCC (ATCC, American Type Culture Collection).
(§2) The evaluation of the cytotoxic potential of complexes 1–4 was obtained through in vitro measurements of the antiproliferative activity of these complexes. Cells were plated in 96-well plates at 7.5 × 10^4 cells/mL and incubated at 37 °C with 5% (v/v) CO2. After 24 h, the culture medium was replaced with fresh medium (100 μL) containing 0.1–50 μM of the different complexes and incubated for 48 h in tumor cell lines or containing 0.1–100 μM of the different complexes and incubated for 48 h in fibroblasts. […] The fibroblast cell line was used as a control of the cytotoxicity of the complexes for healthy cells. Cell viability was evaluated using Cell Titer 96 Aqueous Non-Radioactive Cell Proliferation Assay (Promega, Madison, WI, USA) using 3-(4,5-dimethylthiazol-2-yl)-5-(3-carboxymethoxyphenyl)-2-(4-sulfophenyl)-2H-tetrazolium inner salt (MTS), as described previously.[60] In metabolically active cells, enzymes present in the mitochondria catalyze a reaction in which NADPH/NADH is produced. These enzymes reduce the MTS reagent into a brownish product, Formazan, which can be quantified by measuring the absorbance at 490 nm. The quantity of formazan produced is directly proportional to the number of viable cells in the culture. This quantification was executed with a Biorad microplate reader Model 680 (Bio-Rad, Hercules, CA, USA). Half maximal inhibitory concentration (IC50) was calculated using GraphPad Prism 6 (GraphPadSoftware). We have calculated the ratio between the IC50 of fibroblasts and the IC50 of HCT116, A2780, MDA-MB-231, or MCF-7 cell lines for complexes 1–4 that was named herein as the Selectivity index (SI). To ensure the solubility of the complexes in all biological assays, complex solutions were freshly prepared and well solubilized before addition to the cells.

[2] = Octanol-water partition coefficient, shake-flask method; format: physicochemical; details: room temperature
Description: The lipophilicity of the CoCp complexes was estimated by the shake-flask method.[54] Before the assays, n-octanol was vigorously mixed with distilled water for 24 h at room temperature to promote solvent saturation of both phases. After separating the phases, the complexes were dissolved in the n-octanol phase to obtain solutions 1.0 × 10^–5 to 2.5 × 10^–4 M. Then, each solution was equilibrated with water for 4 h in a mechanical shaker, at a phase ratio of 2 mL n-octanol:2 mL water. Afterward, the aqueous and octanol layers were carefully separated by centrifugation (5000 rpm, 10 min), and the UV–vis absorption spectra of the complexes were recorded in the n-octanol phase. For each sample, the concentration was determined by using a calibration curve in n-octanol. All experiments were performed in triplicate for each complex, being the averages used for calculation purposes. Finally, the values of the partition coefficients were calculated by resorting to the following eq (eq 1): [drawing 1] 1 where logPoct/water represents the octanol–water partition coefficient, [complex]oct represents the concentration of the complex in the n-octanol phase, and [complex]water represents the concentration of the complex in the water phase.

[3] = tested on: A2780 (human ovarian carcinoma) cell line; test: Antiproliferative activity, MTS assay, A2780; format: cell-based; details: for IC50: 48 h exposure, MTS assay; for Selectivity index (SI) of ligands, A2780: Table S3, values with * calculated taking fibroblast IC50 as 100 µM (minimal value)
Description: as §1, §2

[4] = tested on: normal human primary dermal fibroblasts; test: Antiproliferative activity, MTS assay, healthy fibroblasts; format: cell-based; details: 48 h exposure, healthy human cells
Description: as §1, §2

[5] = tested on: MCF-7 (human breast cancer) cell line; test: Antiproliferative activity, MTS assay, MCF-7; format: cell-based; details: 48 h exposure, MTS assay
Description: as §1, §2

[6] = tested on: HCT116 (human colorectal carcinoma) cell line; test: Antiproliferative activity, MTS assay, HCT116; format: cell-based; details: for IC50: 48 h exposure, MTS assay; for Selectivity index (SI) of ligands, HCT116: Table S3, values with * calculated taking fibroblast IC50 as 50 µM (minimal value)
Description: as §1, §2

A2780 cell line = test: Autophagy induction, flow cytometry; format: cell-based, human; details: A2780, 48 h; complexes at IC50, DOX 0.4 μM, cisplatin 5 μM; rapamycin 500 nM for 15 h
Description: The autophagy induced by complexes 2–4 was evaluated using the Autophagy Assay Kit (ab139484, Abcam, Cambridge, United Kingdom) according to the manufacturer’s instructions. For this, the A2780 cell line was seeded at a density of 2 × 10^5 cells/well in 6-well plates and incubated for 24 h at the conditions mentioned before. […] The positive control Rapamycin at 500 nM was incubated for only 15 h. After 48 h incubation, the cells were washed with PBS 1×, detached with TE, and treated with the Autophagy detection kit (Abcam, Cambridge, UK) according to the manufacturer’s instructions. The evaluation of autophagy induction was done through the Attune acoustic focusing flow cytometer (ThermoFisher Scientific) and respective software.

A2780 cells = test: Cell cycle progression (PI flow cytometry, double thymidine block); format: cell-based, human; details: A2780, 24 h; complexes at IC50, DOX 0.4 μM, cisplatin 5 μM
Description: The interference of the copper complexes 2–4 in the cell cycle progression was evaluated in A2780 cells, seeded in 6-weel plates, with a density of 2 × 10^5 cells/well, and incubated for 8 h at the same conditions as described above. After that incubation time, the cells were synchronized in early S-phase with a 2 mM thymidine solution (Sigma, St. Louis, USA) for a 16 h period. Media with thymidine was replaced by fresh media and, after 8 h, another 2 mM thymidine solution was added to the wells (double thymidine block) and incubated for 16 h. […] Cells were incubated for 9, 18, or 24 h, and, at each hour, the cells were treated with TE and centrifuges at 650 × g for 5 min at 4 °C. The pellet was resuspended in PBS 1× and centrifuged at 3000 × g for 5 min at 4 °C. Later, the pellet was resuspended in 100 μL of PBS 1×, and 1 mL of a solution of 80% (v/v) ethanol was gently added to the cells. Cells were stored at 4 °C for at least 12 h and then centrifuged for 10 min at 7500 × g at 4 °C, treated with 250 μL of 50 μg/mL RNase A, and incubated for 30 min at 37 °C. After incubation, 100 μL of PI (25 μg/mL) was added to the cells as well as 650 μL of PBS 1×. The DNA content was evaluated on an Attune Acoustic Focusing Flow Cytometer (ThermoFisher Scientific) and results were analyzed by the respective software.

DNA of A2780 cells = test: Single-cell gel electrophoresis (comet assay); format: cell-based, human; details: A2780; complexes 10× IC50 for 12 h; H2O2 0.05% for 30 min at RT
Description: A2780 cells were seeded in 6-well plates with a density of 1 × 10^6 cells/well and incubated for 24 h in an incubator with a humidified atmosphere at 5% (v/v) CO2 and 37 °C. […] The complexes and DMSO were incubated at 37 °C for 12 h and H2O2 for 30 min at RT. Cells were harvested with a cell scraper and solutions with 1 × 10^5 cells/mL in PBS were prepared. It was withdrawn 10 μL from the solutions and added to 90 μL of 1.5% (w/v) low melting point agarose in 1× PBS and dropped on the slides prepared previously with a coating of 1.5% (w/v) agarose (normal melting point agarose) in 1× TAE buffer. After drying at 4 °C for 15 min, the slides were dipped into lysis solution (450 mM NaCl, 3.72% EDTA, 5 mM Tris; to which 10% (v/v) DMSO and 1% (v/v) Triton-X were added just before use) for 1 h at 4 °C, followed by their being dipped for 40 min into cold electrophoresis solution (1 mM EDTA, 300 mM NaOH, pH 13). Electrophoresis was performed at 4 °C for 30 min at 25 V using a Sub-Cell model 96 apparatus (Bio-Rad). Afterward, slides were placed in 0.1 M Tris–HCl buffer (pH 7.5) at 4 °C for 15 min for neutralization, followed by 15 min in methanol at 4 °C and drying at 37 °C. For visualization of comets, slides were hydrated with distilled water at 4 °C for 30 min, stained with 20 μL of GelRed working solution (3×), and covered with new coverslips. The slides were observed under a Ti–U Eclipse inverted microscope (Nikon Instruments, Japan) and analyzed by CometScore version 2.1 (TriTek). About 100 cells per sample were analyzed. The percentage of DNA in the tail was used as a measure of the total DNA strand breakage.

Structure (SMILES)	IC50 ([3]; Homo sapiens, A2780) [µM]	Selectivity index (SI) of ligands, A2780 [3]	IC50 ([4]; Fibroblast) [µM]	IC50 ([6]; Homo sapiens, HCT-116) [µM]	other results
O=S(=O)([O-])C(F)(F)F.O=S(=O)([O-])C(F)(F)F.[Co+3].c1cc[cH-]c1.c1ccc(-c2ccccn2)nc1.c1ccc(P(c2ccccc2)c2ccccc2)cc1 [Complex 1, [Co(η^5-C5H5)(PPh3)(bipy)][(CF3SO3)2]]					IC50 [1]: > 50 µM; logP (n-octanol/water partition coefficient) [2]: −0.67 ± 0.02; IC50 [3]: 18.1 ± 0.1 µM; IC50 [4]: > 100 µM; IC50 [5]: > 50 µM; IC50 [6]: > 50 µM
Cc1ccnc(-c2cc(C)ccn2)c1 [Me2bipy, 4,4′-dimethyl-2,2′-bipyridine]	17.6 ± 0.1	2.8	> 50	12.4 ± 0.2	fold less cytotoxic than Phen and NH2phen ligands ([3]; free ligand, A2780 and HCT116): about 10 fold; Selectivity index (SI) of ligands, HCT116 [6]: 4.0
Nc1cc2cccnc2c2ncccc12 [NH2phen, 5-amino-1,10′-phenanthroline]	1.9 ± 0.08	15.2	29.9 ± 0.4	2.3 ± 0.06	Selectivity index (SI) of ligands, HCT116 [6]: 13.1
c1ccc(P(c2ccccc2)c2ccccc2)cc1 [PPh3, triphenylphosphane]	37.8 ± 0.1	1.3	> 50	> 50	
c1cnc2c(c1)ccc1cccnc12 [Phen, 1,10′-phenanthroline]	2.4 ± 0.05	20.9	50.1 ± 0.1	4.1 ± 0.04	Selectivity index (SI) of ligands, HCT116 [6]: 12.4
O=[C]=[Co]([I])([I])[CH]1C=CC=C1 [[CoCp(CO)I2]]		1.7			IC50 [3]: 29.9 ± 0.1 µM; IC50 [4]: > 50 µM; IC50 [6]: > 50 µM
c1ccc(-c2ccccn2)nc1 [bipy, 2,2′-bipyridine]	> 50		> 50	> 50	
N.N.[Cl][Pt][Cl] [cisplatin, reference compound]					IC50 [3]: 1.9 ± 0.2 µM; levels of autophagy (A2780 cell line): 96.7%; % of cells in the G2/M phase (A2780 cells): 31.3%; IC50 [6]: 15.6 ± 5.3 µM
COc1cccc2c1C(=O)c1c(O)c3c(c(O)c1C2=O)C[C@@](O)(C(=O)CO)C[C@@H]3O[C@H]1C[C@H](N)[C@H](O)[C@H](C)O1 [doxorubicin, reference compound]	0.1 ± 0.1			0.5 ± 0.1	levels of autophagy (A2780 cell line): 84.1%; % of cells in the G2/M phase (A2780 cells): 77.9%
OO [hydrogen peroxide, reference compound]					% of DNA in the tail (DNA of A2780 cells): 73%
CO[C@H]1C[C@@H]2CC[C@@H](C)[C@@](O)(O2)C(=O)C(=O)N2CCCC[C@H]2C(=O)O[C@H]([C@H](C)C[C@@H]2CC[C@@H](O)[C@H](OC)C2)CC(=O)[C@H](C)/C=C(\C)[C@@H](O)[C@@H](OC)C(=O)[C@H](C)C[C@H](C)/C=C/C=C/C=C/1C [rapamycin, Rapamycin, reference compound]					levels of autophagy (A2780 cell line): 72.93%
